Reference: publication PMC9264368, “Structural Analysis and Development of Notum Fragment Screening Hits” (ACS Chemical Neuroscience, 2022)
In brackets after ≈: the same amount, converted by molar mass. Read-outs that look alike come from different tables or passages of the source.

Assays:
[1] = design: method as in PMID 33124429; settings: mouse; cited from earlier work
[2] = system: Wnt/β-catenin signaling in the presence of Notum; settings: read-out: EC50, restoration of Wnt/β-catenin signaling, TCF/LEF reporter
[3] = system: Wnt/β-catenin signaling in the presence of Notum; design: method as in PMID 35536179; settings: read-out: EC50, cell-based reporter (TCF/LEF) assay; cited from earlier work
[4] = design: method as in PMID 35536179; settings: cited from earlier work
[5] = design: method as in PMID 35536179; settings: mouse liver microsomes; cited from earlier work
[6] = design: method as in PMID 35536179; settings: human liver microsomes; cited from earlier work
[7] = system: MDCK-MDR1; design: method as in PMID 35536179; settings: cited from earlier work
[8] = target: T1, Notum (Homo sapiens, UniProt Q6P988, C330S); test: biochemical
T1 sequence (Q6P988 81-451 C330S): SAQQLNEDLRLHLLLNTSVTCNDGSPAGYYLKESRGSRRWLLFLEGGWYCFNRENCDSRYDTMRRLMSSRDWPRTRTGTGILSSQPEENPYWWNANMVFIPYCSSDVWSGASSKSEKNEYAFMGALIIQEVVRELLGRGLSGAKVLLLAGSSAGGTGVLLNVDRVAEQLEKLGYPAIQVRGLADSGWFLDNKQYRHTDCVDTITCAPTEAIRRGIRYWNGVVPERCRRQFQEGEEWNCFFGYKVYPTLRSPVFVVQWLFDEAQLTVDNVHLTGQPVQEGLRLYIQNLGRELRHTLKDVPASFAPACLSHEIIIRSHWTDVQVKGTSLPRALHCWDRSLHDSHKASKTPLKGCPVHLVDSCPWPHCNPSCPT

[9] = target: T1, Notum; settings: for LE (ligand efficiency): LE = 1.4(−pIC50)/HAC; for LLE (lipophilic ligand efficiency): LLE = pIC50 – clogP; for LE / LLE: supplementary CSV
[10] = Notum IC50, OPTS substrate, 10-point curves 30 nM to 1 mM, mean ± s.d. of N = 2–4 unless stated, Table 1 and figures
[11] = pIC50, Table 1, Notum OPTS assay

IC50 [8, 10]	LE (ligand efficiency) [9]	LLE (lipophilic ligand efficiency) [9]	LE [9]	LLE [9]	Structure (SMILES)	further results
					Oc1nnc(-c2ccc(Cl)c(C(F)(F)F)c2)o1 [7a]	brain penetration [1]: only partial; plasma exposure [1]: good
					OCc1cn(-c2ccc(Cl)c(C(F)(F)F)c2)nn1 [7b, (1-(4-Chloro-3-(trifluoromethyl)phenyl)-1H-1,2,3-triazol-4-yl)methanol]	EC50 [2]: 1.6 ± 1.2 µM
					FC(F)(F)c1c(Cl)ccc(-n2ccnn2)c1Cl [7d]	EC50 [3]: 0.11 ± 0.1 µM
< 10 µM					OCc1cn(-c2ccc(Cl)c(Cl)c2)nn1 [compound 7]	aqueous solubility [4]: 100 mg/mL (≈ 410 mM); MLM Cli [5]: 88 µL/min/mg protein; HLM Cli [6]: 12 µL/min/mg protein; Papp AB ([7]; MDCK-MDR1, AB): 57 × 10^–6 cm/s; Papp BA ([7]; MDCK-MDR1, BA): 59 × 10^–6 cm/s
68 ± 5.4 µM	0.45	3.2	0.45	3.2	COCC(=O)NCc1ccccc1 [compound 41]	
87 ± 47 µM	0.34	2.7	0.34	2.7	COc1ccc(CNC(=O)[C@@H]2CCCO2)cc1 [compound 43]	
410 ± 63 µM	0.34	2.0	0.34	2	COC(=O)COc1ccc(C#N)cc1 [compound 44]	
720 ± 18 µM	0.24	1.2	0.24	1.2	O=C(NCCc1ccc(O)cc1)c1ccccn1 [compound 45]	
380 ± 130 µM	0.32	0.7	0.32	0.7	COc1cc(-c2ccccc2)nc(N)n1 [compound 46]	
550 ± 93 µM	0.33	1.8	0.33	1.8	Cn1nc(O)cc1Nc1ccccc1 [compound 49]	IC50 [8, 11]: 631 µM
36 ± 2.7 µM	0.37	1.1	0.37	1.1	Cc1ccc(C)c(OC(=O)c2ccncc2)c1 [compound 50]	
980 ± 17 µM	0.25	2.7	0.25	2.7	CCc1noc(C)c1C(=O)Nc1cc(C)on1 [compound 53]	
78 ± 8.2 µM	0.38	2.0	0.38	2	Cc1ccccc1CNc1nnnn1C [compound 54]	
260 ± 51 µM	0.33	1.5	0.33	1.5	CCn1c(NC(C)=O)nc2ccccc21 [compound 57]	IC50 [8, 11]: 316 µM
390 ± 53 µM	0.38	1.4	0.38	1.4	CC(=O)Nc1ccc2nsnc2c1 [compound 58]	

Structure (SMILES)	IC50 [8, 10]	LE (ligand efficiency) [9]	LLE (lipophilic ligand efficiency) [9]	LE [9]	LLE [9]	further results
C[C@@H](Oc1ccc(-c2ccccc2)cc1)C(=O)O [compound 55]	200 ± 76 µM	0.29	0.2	0.29	0.2	
